Laboratory results: US5945539A, “Oxazole derivatives and use thereof” (Japan Tobacco, Inc., priority 1994, dated 1999)
Where two headings read alike, the source gives them in different places.

Assays:
[1] = biological target: T1, cyclooxygenase-2 (COX-2) (Ovis aries, UniProt P79208); test: inhibitory activity on cyclooxygenase-2 (Experimental Example 1-1, sheep placenta solubilized fraction); type: biochemical; conditions: for IC50: sheep placenta COX-2, pH 8, 24° C.; for inhibition at 100 µM: sheep placenta COX-2, inhibition at 100 μM test compound
T1 sequence (P79208 17-603): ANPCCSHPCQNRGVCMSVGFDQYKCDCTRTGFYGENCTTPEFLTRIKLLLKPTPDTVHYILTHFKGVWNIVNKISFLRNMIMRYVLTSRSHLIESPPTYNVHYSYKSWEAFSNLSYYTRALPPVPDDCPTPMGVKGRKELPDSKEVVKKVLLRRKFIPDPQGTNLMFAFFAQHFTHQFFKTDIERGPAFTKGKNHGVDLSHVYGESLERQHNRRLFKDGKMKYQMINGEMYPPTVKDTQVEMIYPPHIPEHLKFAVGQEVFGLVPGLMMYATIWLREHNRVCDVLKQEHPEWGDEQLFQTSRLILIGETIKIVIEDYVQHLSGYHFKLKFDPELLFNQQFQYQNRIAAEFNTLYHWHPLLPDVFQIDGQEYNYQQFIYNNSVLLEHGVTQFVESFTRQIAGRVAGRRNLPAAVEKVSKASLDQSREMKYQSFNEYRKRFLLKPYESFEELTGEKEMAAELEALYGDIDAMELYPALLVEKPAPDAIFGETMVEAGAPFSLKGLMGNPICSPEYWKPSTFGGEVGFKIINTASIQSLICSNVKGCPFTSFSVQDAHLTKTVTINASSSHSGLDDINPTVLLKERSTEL
Method: (§1) That is, a test sample (20 μl), an enzyme solution (20 μl) and distilled water (10 μl) were added to 100 mM Tris-HCl buffer (pH 8, 140 μl) containing hematin (2 μM) and tryptophan (5 mM), and the mixture was thoroughly stirred, which was followed by preincubation at 24° C. for 5 minutes. Then, a ^1 4 C arachidonic acid solution (10 μl) was added and the mixture was reacted at 24° C., whereafter a solution (40 μl) of ethyl ether/methanol/1 M citric acid (30/4/1) ice-cooled to -20° C. was added to stop the reaction.

[2] = biological target: T2, cyclooxygenase-1 (COX-1) (Ovis aries, UniProt P05979); test: inhibitory activity on cyclooxygenase-1 (Experimental Example 1-1, sheep seminal vesicle microsome fraction); type: biochemical; conditions: for IC50: sheep seminal vesicle COX-1, pH 8, 24° C.; for inhibition at 100 µM: sheep seminal vesicle COX-1, inhibition at 100 μM test compound
T2 sequence (P05979 25-600): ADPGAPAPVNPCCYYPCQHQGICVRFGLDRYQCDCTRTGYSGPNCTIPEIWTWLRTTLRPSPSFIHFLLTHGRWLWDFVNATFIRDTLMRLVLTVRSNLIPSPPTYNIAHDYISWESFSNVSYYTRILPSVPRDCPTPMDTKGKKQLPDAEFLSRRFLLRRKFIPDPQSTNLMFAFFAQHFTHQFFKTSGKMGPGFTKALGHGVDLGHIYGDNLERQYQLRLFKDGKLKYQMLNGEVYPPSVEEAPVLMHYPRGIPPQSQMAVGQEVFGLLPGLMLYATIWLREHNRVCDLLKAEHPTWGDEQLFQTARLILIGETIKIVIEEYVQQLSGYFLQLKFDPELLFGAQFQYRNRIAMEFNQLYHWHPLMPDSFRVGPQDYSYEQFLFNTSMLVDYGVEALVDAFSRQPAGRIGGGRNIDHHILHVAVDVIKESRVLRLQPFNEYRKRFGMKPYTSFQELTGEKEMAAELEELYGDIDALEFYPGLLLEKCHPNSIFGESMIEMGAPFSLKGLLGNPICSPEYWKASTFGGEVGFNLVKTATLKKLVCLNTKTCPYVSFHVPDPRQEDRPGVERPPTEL
Method: as §1

[3] = biological target: T3, human cyclooxygenase-2 (COX-2) (Homo sapiens, UniProt P35354); test: inhibitory activity on cyclooxygenase-2 (Experimental Example 1-2, human COX-2 expressed by yeast); type: biochemical
T3 construct: made in house
T3 sequence (P35354 18-604): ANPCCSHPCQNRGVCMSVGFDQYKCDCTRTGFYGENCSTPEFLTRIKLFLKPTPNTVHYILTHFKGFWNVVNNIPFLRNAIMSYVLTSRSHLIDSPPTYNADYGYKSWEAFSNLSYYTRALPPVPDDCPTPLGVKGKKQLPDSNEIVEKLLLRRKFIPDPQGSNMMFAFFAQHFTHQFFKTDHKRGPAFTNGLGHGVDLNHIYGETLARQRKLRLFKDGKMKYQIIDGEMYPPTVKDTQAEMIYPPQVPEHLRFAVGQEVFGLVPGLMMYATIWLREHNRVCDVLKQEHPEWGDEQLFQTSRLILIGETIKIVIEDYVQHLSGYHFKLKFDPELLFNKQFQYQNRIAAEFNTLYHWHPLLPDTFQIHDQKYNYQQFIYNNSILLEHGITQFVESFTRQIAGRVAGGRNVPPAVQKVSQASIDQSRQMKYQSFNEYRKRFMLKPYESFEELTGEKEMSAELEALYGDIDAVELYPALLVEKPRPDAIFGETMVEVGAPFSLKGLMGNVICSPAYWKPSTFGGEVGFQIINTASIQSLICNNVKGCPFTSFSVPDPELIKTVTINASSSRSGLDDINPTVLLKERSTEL
Method: as §1

[4] = biological target: T4, cyclooxygenase-1 (COX-1) (Homo sapiens, UniProt P23219); test: inhibitory activity on cyclooxygenase-1 (Experimental Example 1-2, enzyme prepared from human platelets); type: biochemical; conditions: COX-1 prepared from human platelets
T4 construct: an enzyme prepared from human platelets; from tissue; host or cells: human platelets
T4 sequence (P23219 24-599): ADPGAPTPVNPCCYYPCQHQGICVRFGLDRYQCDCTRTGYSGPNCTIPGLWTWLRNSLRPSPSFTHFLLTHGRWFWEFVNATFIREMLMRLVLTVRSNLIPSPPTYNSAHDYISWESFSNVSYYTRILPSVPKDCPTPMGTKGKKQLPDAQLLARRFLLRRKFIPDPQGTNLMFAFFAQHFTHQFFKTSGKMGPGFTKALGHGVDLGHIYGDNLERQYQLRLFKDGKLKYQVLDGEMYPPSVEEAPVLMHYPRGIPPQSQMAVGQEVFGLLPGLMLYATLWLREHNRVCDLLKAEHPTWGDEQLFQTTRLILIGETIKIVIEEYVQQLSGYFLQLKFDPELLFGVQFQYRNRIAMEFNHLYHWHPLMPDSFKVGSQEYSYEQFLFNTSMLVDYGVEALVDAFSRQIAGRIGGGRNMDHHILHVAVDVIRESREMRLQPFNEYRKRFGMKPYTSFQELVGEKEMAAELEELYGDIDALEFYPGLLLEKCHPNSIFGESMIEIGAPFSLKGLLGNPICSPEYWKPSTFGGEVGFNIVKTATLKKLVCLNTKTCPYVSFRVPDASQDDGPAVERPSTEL
Method: as §1

[5] = test system: carrageenin-induced paw edema; test: effects on carrageenin-induced paw edema in rats (Experimental Example 2); type: in vivo, male Donryu rats; conditions: Rattus norvegicus, po, 3 h
Method: Carrageenin (1%, 0.05 ml) dissolved in physiological saline was subcutaneously injected to the left hind paw of male Donryu rats to induce paw edema. The degree of paw edema was evaluated by measuring the volume of the paw 3 hours after carrageenin administration. […] Inhibitory activity was expressed by the dose (ED30) of the test compound necessary for inhibiting by 30% relative to the control group.

[6] = effects on gastric ulcer formation in rats (Experimental Example 3); set-up: species or system male Donryu rats; conditions: rat, in vivo
Method: A test compound (100 mg/kg) was orally administered (10 ml/kg) to male Donryu rats. Six hours later, the stomach of the rats was exposed and fixed with 0.1% formalin. The stomach was opened and the degree of ulcer formation was evaluated.

IC50 [1]	inhibition at 100 µM [2]	Compound	ED30 [5]	other results
80 µM	10%	Cc1nc(-c2ccc(S(C)(=O)=O)cc2)c(-c2ccc(C)s2)o1 [2(B), 4-(4-methylsulfonylphenyl)-2-methyl-5-(5-methyl-2-thienyl)oxazole]	–	–
30 µM	57%	Cc1nc(-c2ccc(S(C)(=O)=O)cc2)c(-c2ccc(Cl)s2)o1 [10(B), 5-(5-chloro-2-thienyl)-2-methyl-4-(4-methylsulfonylphenyl)oxazole]	–	–
50 µM	14%	Cc1nc(-c2cccs2)c(-c2ccc(S(C)(=O)=O)cc2)o1 [11(A), 5-(4-methylsulfonylphenyl)-2-methyl-4-(2-thienyl)oxazole]	9.5 mg/kg	–
–	6%	Cc1nc(-c2ccc(S(C)(=O)=O)cc2)c(-c2cccs2)o1 [11(B), 4-(4-methylsulfonylphenyl)-2-methyl-5-(2-thienyl)oxazole]	–	inhibition at 100 µM [1]: 2%
< 1 µM	18%	CCc1nc(C2CCCCC2)c(-c2ccc(S(C)(=O)=O)cc2)o1 [Example 3, 4-Cyclohexyl-2-ethyl-5-(4-methylsulfonylphenyl)oxazole]	–	–
4 µM	26%	Cc1nc(C2CCC(C)CC2)c(-c2ccc(S(C)(=O)=O)cc2)o1 (centres unmarked) [Example 4, 5-(4-methylsulfonylphenyl)-2-methyl-4-(4-methylcyclohexyl)oxazole]	–	IC50 [4]: > 100 µM
10 µM	5%	CC1=CCC(c2nc(C)oc2-c2ccc(S(C)(=O)=O)cc2)CC1 (centres unmarked) [Example 5]	–	–
–	–	Cc1nc(C2CCCC2)c(-c2ccc(S(C)(=O)=O)cc2)o1 [Example 6, 4-cyclopentyl-2-methyl-5-(4-methylsulfonylphenyl)oxazole]	–	inhibition at 100 µM [1]: 18%; IC50 [2]: 50 µM
–	–	Cc1nc(C2CCCCCC2)c(-c2ccc(S(C)(=O)=O)cc2)o1 [Example 7, 4-cycloheptyl-2-methyl-5-(4-methylsulfonylphenyl)oxazole]	–	IC50 [2]: 2 µM
–	7%	Cc1nc(-c2ccco2)c(-c2ccc(S(C)(=O)=O)cc2)o1 [Example 8, 4-(2-furyl)-2-methyl-5-(4-methylsulfonylphenyl)oxazole]	–	inhibition at 100 µM [1]: 7%
–	2%	Cc1nc(-c2ccsc2)c(-c2ccc(S(C)(=O)=O)cc2)o1 [Example 9, 5-(4-methylsulfonylphenyl)-2-methyl-4-(3-thienyl)oxazole]	–	inhibition at 100 µM [1]: 35%
–	–	CS(=O)(=O)c1ccc(-c2oc(-c3ccccc3)nc2C2CCCCC2)cc1 [Example 12, 2-phenyl-4-cyclohexyl-5-(4-methylsulfonylphenyl)oxazole, reference compound]	–	inhibition at 100 µM [1]: 16%; IC50 [2]: > 100 µM
–	–	Cc1nc(-c2ccc(Cl)s2)c(-c2ccc(S(N)(=O)=O)cc2)o1 [Example 13, 5-(4-Aminosulfonylphenyl)-4-(5-chloro-2-thienyl)-2-methyloxazole]	–	IC50 [3]: 0.02 µM; IC50 [4]: 0.6 µM
–	–	CNS(=O)(=O)c1ccc(-c2oc(C)nc2C2CCCCC2)cc1 [Example 15, 4-Cyclohexyl-2-methyl-5-(4-methylaminosulfonylphenyl)oxazole]	–	IC50 [3]: 4 µM
–	–	COc1ccc2c(c1)c(CC(=O)O)c(C)n2C(=O)c1ccc(Cl)cc1 [indomethacin, reference compound]	2.9 mg/kg	TD50 at 6 h ([6]; oral, stomach examined six hours later, read-out: gastric ulcer formation in rats): 10 mg/kg

Compound	IC50 [1]	inhibition at 100 µM [2]	ED30 [5]	other results
Cc1nc(-c2ccc(C)s2)c(-c2ccc(S(C)(=O)=O)cc2)o1 [2(A), 5-(4-methylsulfonylphenyl)-2-methyl-4-(5-methyl-2-thienyl)oxazole]	0.4 µM	–	10.8 mg/kg	IC50 [2]: 50 µM; IC50 [3]: 0.04 µM; IC50 [4]: 47.5 µM; TD50 at 6 h ([6]; po): > 100 mg/kg
Cc1nc(-c2ccc(Cl)s2)c(-c2ccc(S(C)(=O)=O)cc2)o1 [10(A), 4-(5-chloro-2-thienyl)-2-methyl-5-(4-methylsulfonylphenyl)oxazole]	0.2 µM	13%	5.4 mg/kg	IC50 [3]: 0.03 µM; IC50 [4]: 12.5 µM; TD50 at 6 h ([6]; po): > 100 mg/kg
Cc1nc(C2CCCCC2)c(-c2ccc(S(C)(=O)=O)cc2)o1 [Example 1, 4-Cyclohexyl-2-methyl-5-(4-methylsulfonylphenyl)oxazole]	–	11%	5.4 mg/kg	TD50 at 6 h ([6]; po): > 100 mg/kg
Cc1nc(C2CCCCC2)c(-c2ccc(S(N)(=O)=O)cc2)o1 [Example 14, 5-(4-Aminosulfonylphenyl)-4-cyclohexyl-2-methyloxazole]	1.5 µM	–	4.5 mg/kg	IC50 [2]: > 100 µM; IC50 [3]: 0.07 µM; TD50 at 6 h ([6]; po): > 100 mg/kg
